Experimental data taken from patent US6780884B2, “Derivating of tryptamine and analogous compounds and pharmaceutical formulations containing them” (Neurim Pharmaceuticals (1991) Ltd., priority 2000, dated 2004).

How the values were obtained:
[1] = tested on: 125I-Melatonin Binding in Membranes of Hamster Brain; assay: 125I-Melatonin binding in membranes of hamster brain (competition); conditions: for inhibition of the specific 125I-melatonin binding: 10^-6M; for % bound at competitor concentration 10-6M / 125I-melatonin bound at competitor concentration 10-6M: competitor 10^-6M; for % bound at competitor concentration 10-6M / % bound at competitor concentration 10-7M: relative to competitor concentration 0; for 125I-melatonin bound at competitor concentration 10-6M / 125I-melatonin bound at competitor concentration 10-7M: 125I-melatonin 250 pM, 37° C., 60 min, radioactivity, unit not given; for % bound at competitor concentration 10-7M / 125I-melatonin bound at competitor concentration 10-7M: competitor 10^-7M
Procedure: ^125I-Melatonin Binding in Membranes of Hamster Brain
2 whole hamster brains were homogenized with Teflon-glass homogenizer in 10 vol/g tissue of ice cold Tris-HCl buffer (50 mmol/L Tris, 5 mmol/L CaCl2, pH=7.4) and spun at 10,000 g for 10 min. the supernatant were spun at 100,000 g for two hours to yield a crude synaptosomal pellet (P2).
Aliquots of suspended P2 (20 ul) were incubated at 37° C. with ^125I-melatonin (250 pM) for 60 mln. in Tris-Hcl buffer in the absence or presence of 1 nM-100 μM test-substances (ML compounds and melatonin). The binding reaction was terminated by the addition of 4 ml ice cold Tris buffer. Membranes were then collected by vacuum filtration using GF/C glass fiber filters and washed with 3×4 ml ice-cold buffer. The filters containing the bound ^125I-melatonin were assayed for the amount of radioactivity in a γ counter. […] ML-29, ML-30 and ML-31 (10^−6M) inhibited (≧20%) the specific ^125I-melatonin binding. ML-27, ML-28 and ML-23 reduced the specific ^125I-melatonin binding to a lesser extent (˜13%).

[2] = tested on: Hippocampal Cell Line (HT22); assay: Glutamate-induced oxidative toxicity in hippocampal cell line (HT22): mitochondrial membrane potential by JC-1 fluorescence ratio; type: cell-based, mouse; conditions: 10^-7 M compound; for protection against glutamate-mediated damage to the mitochondria (in words) / JC-1 ratio B (+glutamate 5 mM) / JC-1 ratio A (control conditions): HT-22 cells; for protection against glutamate-mediated damage to the mitochondria (in words): 5 mM glutamate; for JC-1 ratio B (+glutamate 5 mM) / JC-1 ratio A (control conditions): 24h, fluorescence ratio 530/590:480/530; for JC-1 ratio A (control conditions): control conditions (no glutamate); for effect on mitochondrial membrane potential of the control cells (in words): HT-22 control cells without glutamate; for JC-1 ratio B/A (%): ratio of +glutamate 5 mM to control conditions
Procedure: Table 1: Effects of ML Compounds of the Invention on Glutamate-induced Oxidative Toxicity in Hippocampal Cell Line (HT22)
The changes in the mithochondrial membrane potential was assessed using the fluorescent probe 5,5′,6,6′-tetrachloro-1,1′,3,3′-tetraethylbenzimidazolcarbocyanine iodide (JC-1) according to Nuydens et al, 1999, L of Neuroscience; 92, 153-9. Immortalized mouse hipocampal cells (HT-22) were maintained in Dulbecco's modified minimal essential medium (DMEM) supplemented with 10% fetal bovine serum and passaged by trypsinization. Cells (3000 per 96 palte well) were cultured for 24h with DMEM containing 5 mM glutamate and were treated with 10^−7 M of the ML compounds. Cells were then loaded with JC-1 by changing the culture medium to Phosphate buffered saline (PBS) containing 1 g/L glucose and 10 uM JC-1 for 10 mln. at 37° and were washed once. Flouresence was then measured in a plate reader at excitation/emission wavelengths of 480/530 nm and 530/590 nm. The ratio of the fluoresence intensities in the two wavelengths 530/590:480/530 is an indication of the mitochondrial membrane potential. Decrease in this ratio indicates depolarization of the mitochondrial membrane due to damage induced by anoxic or other phathological situations leading to apoptosis of cells.

Row | SMILES | inhibition of the specific 125I-melatonin binding [1] [%] | % bound at competitor concentration 10-6M [1] [%] | 125I-melatonin bound at competitor concentration 10-6M [1] | % bound at competitor concentration 10-7M [1] [%] | 125I-melatonin bound at competitor concentration 10-7M [1] | protection against glutamate-mediated damage to the mitochondria (in words) [2] | JC-1 ratio B (+glutamate 5 mM) [2] | JC-1 ratio A (control conditions) [2] | effect on mitochondrial membrane potential of the control cells (in words) [2] | JC-1 ratio B/A (%) [2] [%]
1 | COc1ccc2[nH]cc(CCNc3ccc([N+](=O)[O-])cc3[N+](=O)[O-])c2c1 [ML-23, N-(2,4-dinitrophenyl)-5-methoxytryptamine, reference compound] | ~13 | 87 | 403 | 94 | 435 | significantly protected | 1.97 | 2.19 | did not decrease | 90
2 | O=[N+]([O-])c1ccc(NCCc2c[nH]c3ccccc23)c([N+](=O)[O-])c1 [ML-25, N-(2,4-dinitrophenyl)tryptamine] | – | 91 | 390 | 92 | 396 | significantly protected | 2.01 | 2.21 | did not decrease | 91
3 | CC(=O)Nc1cc(NCCc2c[nH]c3ccccc23)c([N+](=O)[O-])cc1[N+](=O)[O-] [ML-26, 2,4-dinitro-5-tryptylaminoacetanilide] | – | 99 | 411 | 104 | 435 | significantly protected | 2.11 | 2.16 | did not decrease | 98
4 | Nc1cc(NCCc2c[nH]c3ccccc23)c([N+](=O)[O-])cc1[N+](=O)[O-] [ML-27, N-(2,4-dinitro-5-aminophenyl)tryptamine] | ~13 | 87 | 426 | 92 | 448 | significantly protected | 1.83 | 1.80 | decreased | 102
5 | Cc1ccc2[nH]cc(CCNc3ccc([N+](=O)[O-])cc3[N+](=O)[O-])c2c1 [ML-28, N-(2,4-dinitrophenyl)-5-methyltryptamine] | ~13 | 87 | 365 | 91 | 381 | did not protect | 2.28 | 2.77 | elevated | 82
6 | CC(=O)Nc1cc(NCCc2c[nH]c3ccc(C)cc23)c([N+](=O)[O-])cc1[N+](=O)[O-] [ML-29, 2,4-dinitro-5-(5′-methyltryptyl)aminoacetanilide] | – | 80 | 358 | 90 | 404 | without providing protection | 1.79 | 2.28 | decreased | 78
7 | COc1ccc2[nH]cc(CCNc3cc(NC(C)=O)c([N+](=O)[O-])cc3[N+](=O)[O-])c2c1 [ML-30, 2,4-dinitro-5-(5′-methoxytryptyl)aminoacetanilide] | – | 80 | 409 | 96 | 488 | significantly protected | 2.13 | 1.83 | decreased | 116
8 | Cc1ccc2[nH]cc(CCNc3cc(N)c([N+](=O)[O-])cc3[N+](=O)[O-])c2c1 [ML-31, N-(2,4-dinitro-5-aminophenyl)-5′-methyltryptamine] | – | 72 | 334 | 94 | 438 | without providing protection | 1.57 | 1.93 | decreased | 81
9 | COc1ccc2[nH]cc(CCNc3cc(N)c([N+](=O)[O-])cc3[N+](=O)[O-])c2c1 [ML-32, N-(2,4-dinitro-5-aminophenyl)-5′-methoxytryptamine] | – | 93 | 419 | 90 | 408 | without providing protection | 1.76 | 2.15 | decreased | 82
10 | COc1ccc2[nH]cc(CCNC(C)=O)c2c1 [Melatonin, reference compound] | 20 | 79 | 335 | 89 | 377 | significantly protected | 2.44 | 2.48 | – | 98
